Measured values published in patent US20160122342A1, “ENHANCER OF ZESTE HOMOLOG 2 INHIBITORS” (GLAXOSMITHKLINE INTELLECTUAL PROPERTY (NO.2) LIMITED, priority 2013, published 2016).
Where a name gives a salt, the structure may show the parent alone.

How the values were obtained:
[1] = biological target: T1, EZH2 within the PRC2 complex (Homo sapiens, UniProt Q15910); test: Assay Protocol 1: EZH2 methyltransferase scintillation proximity assay, mononucleosome substrate; format: biochemical; conditions: Assay Protocol 1; SPA, 3H-SAM, Histone H3 of mononucleosome purified from HeLa cells; 5-member PRC2 complex; read-out: EZH2 IC50
T1 construct: FLAG; made in house; host or cells: Sf9 cells
Procedure: Compounds contained herein were evaluated for their ability to inhibit the methyltransferase activity of EZH2 within the PRC2 complex. […] Mononucleosomes were captured on SPA beads and the resulting signal is read on a ViewLux plate reader. • 1. Prepare 10 mM stock of compounds from solid in 100% DMSO. • 2. […] Dispense 100 nL of compound from the dilution plate into reaction plates (Grenier Bio-One, 384-well, Cat#784075). Prepare the following solutions: • 1. 50 mM Tris-HCl, pH 8: Per 1 L of base buffer, combine 1 M Tris-HCl, pH 8 (50 mL) and distilled water (950 mL). • 2. 1× Assay Buffer: […] SPA Bead Suspension: […] Per 10 mL of 2× Substrate Solution, combine 1× Assay Buffer (9728.55 uL), 800 ug/mL mononucleosomes (125 uL), 1 mM cold SAM (4 uL), and 7.02 uM 3H-SAM (142.45 uL; 0.55 mCi/mL) to provide a final concentration of 5 ug/mL nucleosomes, 0.2 uM cold SAM, and 0.05 uM 3H-SAM. • 6. 2.67× Quench/Bead Mixture: Per 10 mL of 2.67× Quench/Bead Mixture, combine ddH2O (9358 uL), 10 mM cold SAM (267 uL), 40 mg/mL Bead Suspension (375 uL) to provide a final concentration of 100 uM cold SAM and 0.5 mg/mL SPA beads. • 1. Dispense 100 nL/well of 100× Compound to test wells (as noted above). • 2. […] • 1. Dispense 5 uL/well of 1× Assay Buffer to column 18 (low control reactions). • 2. Dispense 5 uL/well of 2× Enzyme Solution to columns 1-17, 19-24. • 3. Spin assay plates for ˜1 minute at 500 rpm. • 4. Stack the assay plates, covering the top plate. • 5. Incubate the compound/DMSO with the enzyme for 30 minutes at room temperature. • 6. Dispense 5 uL/well of 2× Substrate Solution to columns 1-24. • 7. Spin assay plates for ˜1 minute at 500 rpm. • 8. Stack the assay plates, covering the top plate. • 9. Incubate the assay plates at room temperature for 1 hour. • 1. Dispense 5 uL/well of the 3× Quench/Bead Mixture to columns 1-24. • 2. Seal the top of each assay plate with adhesive TopSeal. • 3. Spin assay plates for ˜1 minute at 500 rpm. • 4. […] • 1. Read the assay plates on the Viewlux Plate Reader utilizing the 613 nm emission filter with a 300 s read time. Reagent addition can be done manually or with automated liquid handler. The final DMSO concentration in this assay is 1%. The positive control is in column 6; negative control is in column 18. Final starting concentration of compounds is 100 μM. Percent inhibition was calculated relative to the DMSO control for each compound concentration and the resulting values were fit using standard IC50 fitting parameters within the ABASE data fitting software package.

[2] = biological target: T1, EZH2 within the PRC2 complex; test: Assay Protocol 2: EZH2 methyltransferase scintillation proximity assay, biotinylated histone H3 peptide substrate; format: biochemical; conditions: SPA, 3H-SAM, biotinylated unmethylated histone H3K27 peptide substrate, 5-member PRC2 complex
Procedure: Compounds contained herein were evaluated for their ability to inhibit the methyltransferase activity of EZH2 within the PRC2 complex. […] The peptides were captured on streptavidin-coated SPA beads and the resulting signal was read on a ViewLux plate reader. • 4. Prepare 10 mM stock of compounds from solid in 100% DMSO. • 5. […] Dispense 10 nL of compound from the dilution plate into reaction plates (Corning, 384-well polystyrene NBS, Cat#3673). Prepare the following solutions: • 7. 1× Base Buffer, 50 mM Tris-HCl, pH 8, 2 mM MgCl2: Per 1 L of base buffer, combine 1 M Tris-HCl, pH 8 (50 mL), 1 M MgCl2 (2 mL), and distilled water (948 mL). • 8. 1× Assay Buffer: Per 10 mL of 1× Assay Buffer, combine 1× Base Buffer (9.96 mL), 1 M DTT (40 uL), and 10% Tween-20 (1 uL) to provide a final concentration of 50 mM Tris-HCl, pH 8, 2 mM MgCl2, 4 mM DTT, 0.001% Tween-20. • 9. 2× Enzyme Solution: […] SPA Bead Solution: Per 1 mL of SPA Bead Solution, combine Streptavidin coated SPA beads (PerkinElmer, Cat# RPNQ0261, 40 mg) and 1× Assay Buffer (1 mL) to provide a working concentration of 40 mg/mL. • 11. 2× Substrate Solution: Per 10 mL of 2× Substrate Solution, combine 40 mg/mL SPA Bead Solution (375 uL), 1 mM biotinylated histone H3K27 peptide (200 uL), 12.5 uM 3H-SAM (240 uL; 1 mCi/mL), 1 mM cold SAM (57 uL), and 1× Assay Buffer (9.13 mL) to provide a final concentration of 0.75 mg/mL SPA Bead Solution, 10 uM biotinylated histone H3K27 peptide, 0.15 uM 3H-SAM (˜12 uCi/mL 3H-SAM), and 2.85 uM cold SAM. • 12. 2.67× Quench Solution: Per 10 mL of 2.67× Quench Solution, combine 1× Assay Buffer (9.73 mL) and 10 mM cold SAM (267 uL) to provide a final concentration of 100 uM cold SAM. • 3. […] Dispense 5 uL/well of 1× Assay Buffer to column 18 (low control reactions). • 11. Dispense 5 uL/well of 2× Substrate Solution to columns 1-24 (note: substrate solution should be mixed to ensure homogeneous bead suspension before dispensing into matrix reservoir). • 12. Dispense 5 uL/well of 2× Enzyme Solution to columns 1-17, 19-24. • 13. Incubate the reaction for 60 min at room temperature. • 5. Dispense 6 uL/well of the 2.67× Quench Solution to columns 1-24. • 6. Seal assay plates and spin for ˜1 min at 500 rpm. • 7. Dark adapt plates in the ViewLux instrument for 15-60 min. • 2. Read the assay plates on the Viewlux Plate Reader utilizing the 613 nm emission filter or clear filter (300 s exposure). Reagent addition can be done manually or with automated liquid handler. Percent inhibition was calculated relative to the DMSO control for each compound concentration and the resulting values were fit using standard IC50 fitting parameters within the ABASE data fitting software package.

T1 sequence (Q15910 whole entry): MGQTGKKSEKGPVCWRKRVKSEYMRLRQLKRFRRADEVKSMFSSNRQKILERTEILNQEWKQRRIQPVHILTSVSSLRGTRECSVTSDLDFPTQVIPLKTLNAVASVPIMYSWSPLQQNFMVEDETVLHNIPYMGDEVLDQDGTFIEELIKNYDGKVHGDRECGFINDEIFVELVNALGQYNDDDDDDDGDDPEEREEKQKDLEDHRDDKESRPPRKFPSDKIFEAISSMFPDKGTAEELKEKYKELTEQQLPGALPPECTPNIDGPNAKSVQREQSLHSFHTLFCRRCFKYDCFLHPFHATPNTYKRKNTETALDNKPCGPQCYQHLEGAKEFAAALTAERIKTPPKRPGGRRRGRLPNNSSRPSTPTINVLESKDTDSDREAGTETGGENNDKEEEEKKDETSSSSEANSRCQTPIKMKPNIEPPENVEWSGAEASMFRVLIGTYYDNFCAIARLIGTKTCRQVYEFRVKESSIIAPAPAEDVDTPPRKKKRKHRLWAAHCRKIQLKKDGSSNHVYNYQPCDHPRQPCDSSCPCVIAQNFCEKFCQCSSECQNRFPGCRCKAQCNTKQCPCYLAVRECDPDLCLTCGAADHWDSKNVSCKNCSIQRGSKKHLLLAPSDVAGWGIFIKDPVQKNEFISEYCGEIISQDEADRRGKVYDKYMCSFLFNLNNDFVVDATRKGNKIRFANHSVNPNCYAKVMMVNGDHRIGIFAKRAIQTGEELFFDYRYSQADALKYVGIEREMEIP
T1 sequence (O75530 whole entry partner): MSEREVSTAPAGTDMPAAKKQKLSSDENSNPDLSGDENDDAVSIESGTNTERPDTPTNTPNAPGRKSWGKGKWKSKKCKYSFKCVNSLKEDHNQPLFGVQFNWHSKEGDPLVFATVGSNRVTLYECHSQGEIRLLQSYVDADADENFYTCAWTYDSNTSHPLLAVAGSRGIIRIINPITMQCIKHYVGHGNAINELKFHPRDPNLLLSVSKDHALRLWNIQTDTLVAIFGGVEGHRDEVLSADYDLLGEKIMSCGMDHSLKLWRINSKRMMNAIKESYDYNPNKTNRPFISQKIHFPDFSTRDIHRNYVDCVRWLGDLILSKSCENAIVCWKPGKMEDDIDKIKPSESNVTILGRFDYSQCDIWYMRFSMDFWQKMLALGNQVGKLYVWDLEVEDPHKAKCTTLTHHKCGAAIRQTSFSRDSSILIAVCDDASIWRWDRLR
T1 sequence (Q15022 whole entry partner): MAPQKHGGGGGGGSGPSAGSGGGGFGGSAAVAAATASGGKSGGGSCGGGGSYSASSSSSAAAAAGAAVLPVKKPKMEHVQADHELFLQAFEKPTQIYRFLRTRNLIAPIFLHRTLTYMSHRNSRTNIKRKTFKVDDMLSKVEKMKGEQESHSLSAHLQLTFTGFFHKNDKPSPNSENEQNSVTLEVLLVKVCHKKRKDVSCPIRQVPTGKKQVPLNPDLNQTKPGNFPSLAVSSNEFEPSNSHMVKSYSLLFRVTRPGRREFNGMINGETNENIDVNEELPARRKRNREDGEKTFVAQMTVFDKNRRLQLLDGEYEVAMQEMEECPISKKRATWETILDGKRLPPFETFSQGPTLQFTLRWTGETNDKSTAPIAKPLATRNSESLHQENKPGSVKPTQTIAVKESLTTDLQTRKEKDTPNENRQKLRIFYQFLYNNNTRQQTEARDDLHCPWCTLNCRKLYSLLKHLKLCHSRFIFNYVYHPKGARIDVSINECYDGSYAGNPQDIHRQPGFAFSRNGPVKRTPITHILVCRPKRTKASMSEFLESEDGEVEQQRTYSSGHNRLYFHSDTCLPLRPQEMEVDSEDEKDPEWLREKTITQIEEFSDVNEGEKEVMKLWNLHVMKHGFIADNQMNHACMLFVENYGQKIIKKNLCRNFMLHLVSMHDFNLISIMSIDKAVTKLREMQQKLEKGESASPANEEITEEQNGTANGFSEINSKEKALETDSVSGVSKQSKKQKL
T1 sequence (Q09028 whole entry partner): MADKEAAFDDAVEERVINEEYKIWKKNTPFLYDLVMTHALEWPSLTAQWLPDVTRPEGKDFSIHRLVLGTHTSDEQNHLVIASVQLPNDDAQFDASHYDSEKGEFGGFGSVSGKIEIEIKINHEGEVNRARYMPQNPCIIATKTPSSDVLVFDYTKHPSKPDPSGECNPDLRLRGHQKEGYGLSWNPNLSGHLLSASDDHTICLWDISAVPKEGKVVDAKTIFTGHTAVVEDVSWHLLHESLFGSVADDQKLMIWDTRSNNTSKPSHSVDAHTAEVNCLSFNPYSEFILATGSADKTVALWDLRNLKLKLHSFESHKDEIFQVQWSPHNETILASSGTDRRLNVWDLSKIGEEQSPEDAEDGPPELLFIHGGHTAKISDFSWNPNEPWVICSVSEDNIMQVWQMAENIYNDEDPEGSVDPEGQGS
T1 sequence (Q6ZN18 whole entry partner): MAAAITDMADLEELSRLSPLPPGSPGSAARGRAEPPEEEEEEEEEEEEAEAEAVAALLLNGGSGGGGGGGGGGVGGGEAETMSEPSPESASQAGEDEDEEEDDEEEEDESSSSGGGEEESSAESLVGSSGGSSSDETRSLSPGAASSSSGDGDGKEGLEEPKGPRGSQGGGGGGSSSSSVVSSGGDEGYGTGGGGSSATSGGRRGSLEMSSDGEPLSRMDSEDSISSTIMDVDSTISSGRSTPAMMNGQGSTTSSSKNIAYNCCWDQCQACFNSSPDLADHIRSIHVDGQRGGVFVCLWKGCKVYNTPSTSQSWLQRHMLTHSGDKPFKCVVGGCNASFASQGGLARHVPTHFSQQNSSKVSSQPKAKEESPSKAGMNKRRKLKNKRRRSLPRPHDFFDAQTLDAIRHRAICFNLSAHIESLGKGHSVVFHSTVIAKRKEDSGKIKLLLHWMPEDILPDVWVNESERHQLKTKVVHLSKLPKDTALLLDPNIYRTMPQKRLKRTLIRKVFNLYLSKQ

SMILES	IC50 [1] [nM]	IC50 [2] [nM]
CCN(c1cccc2c1C/C=C/CCc1cc(C)[nH]c(=O)c1CNC2=O)C1CCC(F)(F)CC1 [Example 30, (E)-10-((4,4-difluorocyclohexyl)(ethyl)amino)-3-methyl-5,6,15,16-tetrahydrobenzo[c]pyrido[4,3-j][1]azacyclododecine-1,14(2H,9H)-dione]	16	79
CCN(c1cccc2c1C/C=C/CCc1cc(C)[nH]c(=O)c1CNC2=O)C1CCNCC1 [Example 31, (E)-10-(ethyl(piperidin-4-yl)amino)-3-methyl-5,6,15,16-tetrahydrobenzo[c]pyrido[4,3-j][1]azacyclododecine-1,14(2H,9H)-dione]	13	200
Cc1cc2c(c(=O)[nH]1)CNC(=O)c1cc(Cl)cc(O[C@H]3CC[C@H](N(C)C)CC3)c1C/C=C/CC2 [Example 2, (E)-12-chloro-10-((trans-4-(dimethylamino)cyclohexyl)oxy)-3-methyl-5,6,15,16-tetrahydrobenzo[c]pyrido[4,3-j][1]azacyclododecine-1,14(2H,9H)-dione]	25	126
CCN(c1cccc2c1C/C=C/CCCc1cc(C)[nH]c(=O)c1CNC2=O)C1CCOCC1 [Example 19, (E)-11-(ethyl(tetrahydro-2H-pyran-4-yl)amino)-3-methyl-5,6,7,10,16,17-hexahydro-1H-benzo[c]pyrido[4,3-k][1]azacyclotridecine-1,15(2H)-dione]	40	79
Cc1cc2c(c(=O)[nH]1)CNC(=O)c1cc(Cl)cc(O[C@H]3CC[C@H](N(C)C)CC3)c1CCCCC2 [Example 3, 12-chloro-10-((trans-4-(dimethylamino)cyclohexyl)oxy)-3-methyl-6,7,8,9,15,16-hexahydrobenzo[c]pyrido[4,3-j][1]azacyclododecine-1,14(2H,5H)-dione]	100	158
CCN(c1cc(Cl)cc2c1C/C=C/CCc1cc(C)[nH]c(=O)c1CNC2=O)C1CCOCC1 [Example 17, (E)-12-chloro-10-(ethyl(tetrahydro-2H-pyran-4-yl)amino)-3-methyl-5,6,15,16-tetrahydrobenzo[c]pyrido[4,3-j][1]azacyclododecine-1,14(2H,9H)-dione]	32	126
Cc1cc2c(c(=O)[nH]1)CNC(=O)c1cc(Cl)cc(O[C@H]3CC[C@H](N)CC3)c1C/C=C/CC2 [Example 1, (E)-10-((trans-4-aminocyclohexyl)oxy)-12-chloro-3-methyl-5,6,15,16-tetrahydrobenzo[c]pyrido[4,3-j][1]azacyclododecine-1,14(2H,9H)-dione hydrochloride]	32	100
CCN(c1cccc2c1CCCCCCc1cc(C)[nH]c(=O)c1CNC2=O)C1CCOCC1 [Example 20, 11-(ethyl(tetrahydro-2H-pyran-4-yl)amino)-3-methyl-5,6,7,8,9,10,16,17-octahydro-1H-benzo[c]pyrido[4,3-k][1]azacyclotridecine-1,15(2H)-dione]	25	1000

The remaining lines, values ahead:

IC50 [1] [nM]	IC50 [2] [nM]	SMILES
16	126	CCN(c1cccc2c1C/C=C/CCc1cc(C)[nH]c(=O)c1CNC2=O)[C@H]1CC[C@H](N)CC1 [Example 36, (E)-10-((trans-4-aminocyclohexyl)(ethyl)amino)-3-methyl-5,6,15,16-tetrahydrobenzo[c]pyrido[4,3-j][1]azacyclododecine-1,14(2H,9H)-dione]
63	200	CCN(c1cccc2c1C/C=C/CCc1cc(C)[nH]c(=O)c1CNC2=O)C1CCN(CCC(F)(F)F)CC1 [Example 43, (E)-10-(ethyl(1-(3,3,3-trifluoropropyl)piperidin-4-yl)amino)-3-methyl-5,6,15,16-tetrahydrobenzo[c]pyrido[4,3-j][1]azacyclododecine-1,14(2H,9H)-dione]
63	126	CCN(c1cccc2c1C/C=C/CCc1cc(C)[nH]c(=O)c1CNC2=O)C1CCN(S(C)(=O)=O)CC1 [Example 34, (E)-10-(ethyl(1-(methylsulfonyl)piperidin-4-yl)amino)-3-methyl-5,6,15,16-tetrahydrobenzo[c]pyrido[4,3-j][1]azacyclododecine-1,14(2H,9H)-dione]
40	40	CCN(c1cccc2c1C/C=C/CCc1cc(C)[nH]c(=O)c1CNC2=O)C1CCN(CC2CC2)CC1 [Example 41, (E)-10-((1-(cyclopropylmethyl)piperidin-4-yl)(ethyl)amino)-3-methyl-5,6,15,16-tetrahydrobenzo[c]pyrido[4,3-j][1]azacyclododecine-1,14(2H,9H)-dione]
50	158	CCN(c1cccc2c1C/C=C/CCc1cc(C)[nH]c(=O)c1CNC2=O)C1CCN(C(C)C)CC1 [Example 32, (E)-10-(ethyl(1-isopropylpiperidin-4-yl)amino)-3-methyl-5,6,15,16-tetrahydrobenzo[c]pyrido[4,3-j][1]azacyclododecine-1,14(2H,9H)-dione]
100	158	CCN(c1cccc2c1C/C=C/CNCc1cc(C)[nH]c(=O)c1CNC2=O)C1CCOCC1 [Example 38, (E)-11-(ethyl(tetrahydro-2H-pyran-4-yl)amino)-3-methyl-5,6,7,10,16,17-hexahydro-1H-benzo[h]pyrido[4,3-c][1,6]diazacyclotridecine-1,15(2H)-dione]
50	126	CCN(c1cccc2c1C/C=C/CCc1cc(C)[nH]c(=O)c1CNC2=O)[C@H]1CC[C@H](N(C)C)CC1 [Example 37, (E)-10-((trans-4-(dimethylamino)cyclohexyl)(ethyl)amino)-3-methyl-5,6,15,16-tetrahydrobenzo[c]pyrido[4,3-j][1]azacyclododecine-1,14(2H,9H)-dione]
